Assay results from patent US6136803A, “Antidepressants” (Merrell Pharmaceuticals Inc., priority 1998, dated 2000).
Read-outs that look alike come from different tables or passages of the source.

Test system: -adrenergic receptors (rat cerebral cortical membranes)
Conditions: desipramine 5 mg/kg, i.p.; for [3H]-DHA Specifically Bound: six animals per group, mean ± SEM; for % Control ([3H]-DHA specifically bound): vs saline
Method: The number of -adrenergic receptors in rat cerebral cortical membranes was measured after a 4 day and 14 day course of one of the following treatments:
a) saline control (intraperitoneal injection - i.p.)
c) fluoxetine (10 mg/kg/day, i.p.) or (10 mg/kg bid, i.p.)
Male Sprague-Dawley rats (175-200 g) were assigned randomly to one of the four treatment groups above and were treated as indicated for either 4 or 14 days. The animals were sacrificed 24 hours after their last treatment and cerebral cortical membranes were isolated. These membranes were assayed for -adrenergic receptor number by the method of Bylund and Snyder [Mol. Pharmacol. 12, 568 (1976)] by measuring the amount of [^3 H]dihydro-alprenolol ([^3 H]-DHA) bound.

For CNCCC(Oc1ccc(C(F)(F)F)cc1)c1ccccc1 (stereo not shown) [Fluoxetine, fluoxetine], the “[3H]-DHA Specifically Bound” value (A) 14 days, fluoxetine 10 mg/kg, saline control 41.8 ± 1.4, * p<0.05 vs saline, + P<0.05 vs desipramine) was 37.9 ± 1.8 fmol/mg protein, the “% Control ([3H]-DHA specifically bound)” value (A) 14 days, fluoxetine 10 mg/kg) was 91 % Control and the “[3H]-DHA Specifically Bound” value (B) 4 days, fluoxetine 10 mg/kg bid, saline control 54.6 ± 3.1, * p<0.05 vs saline) was 51.8 ± 1.7 fmol/mg protein. The “% Control ([3H]-DHA specifically bound)” value (B) 4 days, fluoxetine 10 mg/kg bid) was 95 % Control.
